Data published in US8093256B2, “Use of 8-substituted-6,7,8,9-tetrahydropyrimido[1,2-a] pyrimidin-4-one derivatives” (Sanofi-Aventis, priority 2003, dated 2012).
Where a name gives a salt, the structure may show the parent alone.

Target: GSK3β (Homo sapiens, UniProt P49841)
Experiment: Inhibitory activity against GSK3β (33P-ATP phosphorylation of prephosphorylated GS1 peptide, two protocols)
Type: biochemical
Experimental: Inhibitory Activity of the Medicament of the Present Invention Against GSK3β Two different protocols can be used. In a first protocol: 7.5 μM of prephosphorylated GS1 peptide and 10 μM ATP (containing 300,000 cpm of 33P-ATP) were incubated in 25 mM Tris-HCl, pH 7.5, 0.6 mM DTT, 6 mM MgCl2, 0.6 mM EGTA, 0.05 mg/ml BSA buffer for 1 hour at room temperature in the presence of GSK3beta (total reaction volume: 100 microliters). In a second protocol: 4.1 μM of prephosphorylated GS1 peptide and 42 μM ATP (containing 260,000 cpm 33P-ATP) were incubated in 80 mM Mes-NaOH, pH 6.5, 1 mM Mg acetate, 0.5 mM EGTA, 5 mM 2-mercaptoethanol, 0.02% Tween 20, 10% glycerol buffer for 2 hours at room temperature in the presence of GSK3beta. Inhibitors were solubilized in DMSO (final solvent concentration in the reaction medium, 1%). The reaction was stopped with 100 microliters of a solution made of 25 g polyphosphoric acid (85% P2O5), 126 ml 85% H3PO4, H2O to 500 ml and then diluted to 1:100 before use. An aliquot of the reaction mixture was then transferred to Whatman P81 cation exchange filters and rinsed with the solution described above. Incorporated 33P radioactivity was determined by liquid scintillation spectrometry. The phosphorylated GS-1 peptide had the following sequence: NH2-[…](P)EDEE-COOH.

Chain of GSK3β (P49841 whole entry, species assumed): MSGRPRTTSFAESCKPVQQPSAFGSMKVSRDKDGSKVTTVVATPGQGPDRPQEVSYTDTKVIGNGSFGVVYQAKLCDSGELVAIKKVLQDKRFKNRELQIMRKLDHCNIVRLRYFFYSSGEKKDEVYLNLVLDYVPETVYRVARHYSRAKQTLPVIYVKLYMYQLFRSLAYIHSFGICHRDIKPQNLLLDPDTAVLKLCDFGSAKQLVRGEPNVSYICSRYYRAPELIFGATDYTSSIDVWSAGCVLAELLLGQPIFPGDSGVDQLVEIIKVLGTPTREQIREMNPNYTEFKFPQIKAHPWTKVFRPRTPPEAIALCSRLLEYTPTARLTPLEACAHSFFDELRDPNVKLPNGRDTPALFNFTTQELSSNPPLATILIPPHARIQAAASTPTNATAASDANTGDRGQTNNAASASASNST

IC50 [nM]	Compound
7	O=C(CN1c2nc(-c3ccncc3)cc(=O)n2CCC1c1ccncc1)c1cccc(Br)c1 (stereo not shown) [Compound No. 15, 9-[2-(3-Bromo-phenyl)-2-oxo-ethyl]-2,8-dipyridin-4-yl-6,7,8,9-tetrahydro-pyrimido[1,2-a]pyrimidin-4-one hydrochloride (1:2)]

Test system: not given
Experiment: not given

Compound	melting point [°C]
O=c1cc(-c2ccncc2)nc2n1CCC(c1ccccc1)N2CC(O)c1ccc(Cl)cc1 (stereo not shown) [compound 24, 9-[2-Hydroxy-2-(4-chloro-phenyl)-ethyl]-8-phenyl-2-pyridin-4-yl-6,7,8,9-tetrahydro-pyrimido[1,2-a]pyrimidin-4-one]	220 to 222
O=c1cc(-c2ccncc2)nc2n1CCC(c1ccccc1)N2CC(O)c1ccc2ccccc2c1 (stereo not shown) [compound 28, 9-[2-Hydroxy-2-naphthalen-2-yl-ethyl]-8-phenyl-2-pyridin-4-yl-6,7,8,9-tetrahydro-pyrimido[1,2-a]pyrimidin-4-one]	190 to 192

Continued, values first:

melting point [°C]	Compound
201 to 203	O=c1cc(-c2ccncc2)nc2n1CCC(c1ccccc1)N2CC(O)c1ccc(F)cc1 (stereo not shown) [compound 26, 9-[2-Hydroxy-2-(4-fluoro-phenyl)-ethyl]-8-phenyl-2-pyridin-4-yl-6,7,8,9-tetrahydro-pyrimido[1,2-a]pyrimidin-4-one]
170 to 172	O=c1cc(-c2ccncc2)nc2n1CCC(c1ccccc1)N2CC(O)c1cccc(Br)c1 (stereo not shown) [compound 23, 9-[2-Hydroxy-2-(3-bromo-phenyl)-ethyl]-8-phenyl-2-pyridin-4-yl-6,7,8,9-tetrahydro-pyrimido[1,2-a]pyrimidin-4-one]
145 to 147	O=c1cc(-c2ccncc2)nc2n1CCC(c1ccccc1)N2CC(O)c1ccc(-c2ccccc2)cc1 (stereo not shown) [compound 27, 9-[2-Hydroxy-2-(4-phenyl-phenyl)-ethyl]-8-phenyl-2-pyridin-4-yl-6,7,8,9-tetrahydro-pyrimido[1,2-a]pyrimidin-4-one]
218 to 220	O=c1cc(-c2ccncc2)nc2n1CCC(c1ccncc1)N2CC(O)c1cccc(F)c1 (stereo not shown) [compound 25, 9-[2-(3-Fluoro-phenyl)-2-hydroxy-ethyl]-2,8-dipyridin-4-yl-6,7,8,9-tetrahydro-pyrimido[1,2-a]pyrimidin-4-one]
